We go through 15 compounds from paper PMC11304739, “Identification of novel bromodomain inhibitors of Trypanosoma cruzi bromodomain factor 2 (TcBDF2) using a fluorescence polarization-based high-throughput assay” (Antimicrobial Agents and Chemotherapy, 2024).

The test system of test [1] is Dm28c epimastigotes. Conditions: cited from earlier work.
The subject of test [2] is TcBDF2. Set-up: method as in PMID 27007774, PMID 35482332. As to conditions: cited from earlier work.
In test [3] the test system is TcBDF3. On the set-up: method as in PMID 27007774, PMID 35482332. Conditions: cited from earlier work.
Test [4] has as its system LdBDF5. On the set-up: method as in PMID 37906637. As to conditions: different affinities for first or second BD; cited from earlier work.
Test [5] deals with T. cruzi Dm28c epimastigotes expressing beta-galactosidase. In words: Beta-galactosidase expressing parasite assay (epimastigotes). Type of test: cell-based. Conditions: Trypanosoma cruzi, 72 h. The method, then: T. cruzi Dm28c which expresses the Escherichia coli LacZ gene was used ([31][–][33]). Epimastigotes were incubated with the compounds (50, 25, 12.5, 6.25, and 3.125 µM). After 72 hours of treatment, the assays were developed by the addition of Chlorophenol red-β-D-galactopyranoside (100 µM final concentration) and Nonidet P-40 (0.1% final concentration). Plates were incubated for 2 to 4 hours at 37°C. Wells with β-galactosidase activity turned the media from yellow to red, and this was quantitated by absorbance at 595 nm using a Synergy HTX multi-detection microplate reader as reported previously ([31]). Normalized survival percentage was plotted against concentrations on Prism 9.0 GraphPad software. DMSO 50% was used as the 0% survival baseline. Each concentration was assayed in triplicates.
Fig 4 Trypanocidal effect on epimastigotes expressing beta-galactosidase. Epimastigotes were incubated for 72 hours with each compound (named 1 to 6 and indicated on top of each graph) at five concentrations (3.12 to 50 µM). Beta-galactosidase activity was measured, and normalized survival was plotted vs. log concentration. For IC50 calculation of iBET151 and Benznidazole (BZN) (used as positive controls), six concentrations (from 1.56 to 100 µM) were plotted and the curves were fitted using GraphPad Prism 9.0 [non-linear regression: log(inhibitor) vs. response -- Variable slope (four parameters)]. […]

Test [6] concerns the target recombinant TcBD2 (Trypanosoma cruzi, UniProt A0A2V2V5V1). In words: Thermal shift / differential scanning fluorimetry (DSF). Type of test: binding. The method, then:
Recombinant TcBD2 was buffered in 10 mM HEPES, pH 7.5, and 300 mM NaCl and assayed in a 96-well plate at a final concentration of 5 µM in a 25-µL volume. Compounds were added at a final concentration between 0.1 and 50 µM to calculate dissociation constants. SYPRO Orange was added as a fluorescence probe at a dilution of 1:10,000. Excitation and emission filters for the SYPRO Orange dye were set to 465 and 590 nm, respectively. The temperature was raised with a step of 2°C per minute from 25°C to 96°C, and fluorescence readings were taken at each interval in a real-time Bio-Rad Opus CFX. Data were analyzed as previously described ([22]).
Fig 3 Kd calculation using DSF. Six concentrations of each compound (compounds named 1 to 7 indicated on top of each graph) were used (from 0.1 to 50 µM), and the melting temperatures of TcBD2 with each concentration of compound obtained were used to calculate the Kds. DMSO was used as a control sample. All thermal shift assays were performed at least in triplicate with reproducibility of parameters within ±10%. The change of melting temperature versus the log of the ligand concentration was plotted and fitted as described in the Materials and Methods section.

Test [7] deals with BD of TbBDF2. Set-up: method as in PMID 29025975. As to conditions: ITC; cited from earlier work.
Test [8] concerns the target second BD of TbBDF5. Set-up: method as in PMID 29025975. Conditions: ITC; cited from earlier work.
Test [9] concerns TbBDF3. Set-up: method as in PMID 29025975. As to conditions: cited from earlier work.
The test system of test [10] is first BD from TbBDF5. On the set-up: method as in PMID 29025975. Conditions: cited from earlier work.
Test [11] relates to procyclic T. brucei. Set-up: method as in PMID 29025975. Conditions: growth of procyclic T. brucei; cited from earlier work.
Test [12] concerns TbBDF2. On the set-up: method as in PMID 26646171, PMID 35642518. As to conditions: cited from earlier work.
Test [13] has as its system TbBDF3. Set-up: method as in PMID 26646171, PMID 35642518. As to conditions: cited from earlier work.
The subject of test [14] is Toxoplasma tachyzoites infecting HFF cells. On the set-up: method as in PMID 32119930. As to conditions: cited from earlier work.
Test [15] concerns the target LdBD5.1. On the set-up: method as in PMID 37906637. Conditions: cited from earlier work.
Test [16] concerns promastigotes from Leishmania mexicana. Set-up: method as in PMID 37906637. Conditions: cited from earlier work.
In test [17] the test system is promastigotes from L. donovani. Set-up: method as in PMID 37906637. Conditions: cited from earlier work.
Test [18] relates to asexual form of Plasmodium falciparum. Set-up: method as in PMID 29631126. As to conditions: cited from earlier work.
Setting [19] is: second round of experiments, six concentrations, read-out: IC50 (Figure S3, Kd calculation using DSF, second round of experiments).
[20] abbreviates: thermal shift, compounds 0.1 to 50 µM, 5 µM TcBD2, read-out: Kd ± SD.
Setting [21] is: read-out: IC50 against Dm28c epimastigotes.

Like-named read-outs stand apart in the source and are kept apart here.

Sequence of recombinant TcBD2 (A0A2V2V5V1 entry or part of it): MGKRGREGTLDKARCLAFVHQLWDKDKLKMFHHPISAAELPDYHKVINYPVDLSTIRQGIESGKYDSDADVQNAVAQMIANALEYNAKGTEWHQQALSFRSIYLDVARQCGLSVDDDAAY

For the compound `CCOC(=O)Nc1cc(-c2ccc(C)c(NS(C)(=O)=O)c2)nn2c(C)nnc12` [BSP, Bromosporine], the IC50 in test [1] (read-out: IC50 against parasites) was over 50 µM. For the same compound, the “binding to TcBDF2” value in [2] is “bind”. In addition, the “binding to TcBDF3” value in [3] is “bind”. In addition, in test [4], the “binding to LdBDF5” value is on record as “binds”.

Take `O=C(Cn1ccnc1[N+](=O)[O-])NCc1ccccc1` [BZN, Benznidazole]: the half-maximal inhibitory concentration (IC50) in [5] amounted to 19.8 µM.

For the compound `CCn1nnc2c(N3CC[C@@H](N)C3)nc(C)nc21` [Compound 1], the Kd in test [6] (setting [19]) was 1.89 µM; in [6] (setting [20]), 1.91 ± 0.31 µM.

Regarding `CCn1nnc2c(N3CC[C@H](N)C3)nc(C)nc21` [Compound 2], the equilibrium dissociation constant (Kd) in test [6] (setting [19]) was 1.55 µM; in test [6] (setting [20]), 1.33 ± 0.22 µM.

Consider `Cc1cc(C(=O)NC2CCc3nccn3C2)c2c(C)noc2n1` (stereo not shown) [Compound 3], for which the Kd is 2.14 µM in test [6] (setting [19]) and 2.41 ± 0.32 µM in test [6] (setting [20]).

`Cc1cc2c(NC(=O)CC(C)(C)CC(=O)O)cccc2nn1` [Compound 4]: the Kd is 1.92 µM in test [6] (setting [19]) and 1.58 ± 0.42 µM in test [6] (setting [20]).

Take `Cc1cc2c(NS(=O)(=O)c3c(C)noc3C)cccc2nn1` [Compound 5]: the Kd was 3.36 µM in [6] (setting [19]) and 3.52 ± 0.12 µM in test [6] (setting [20]).

For the compound `Cc1cc2c(NC(=O)c3ccccc3C(=O)O)cccc2nn1` [Compound 6], the figures for the dissociation constant (Kd) in test [6] (setting [19]) and in [6] (setting [20]) were 3.11 µM and 3.31 ± 0.26 µM, respectively.

Consider `CC(=O)Nc1nc(C)c(S(=O)(=O)Nc2cccc3nnc(C)cc23)s1` [Compound 7], for which the Kd in [6] (setting [19]) is 3.15 µM; in test [6] (setting [20]), 2.81 ± 0.31 µM.

As to `CCCOc1ccn2c(C(C)=O)cc(-c3ccccc3S(C)(=O)=O)c2c1` [GSK2801], the results for the equilibrium dissociation constant (Kd) in test [7] and in test [8] were 15 µM and 83 µM, respectively. Moreover, the “binding to TbBDF3” value in test [9] was “does not bind”. The “binding to first BD from TbBDF5” value in [10] is “does not bind”. The concentration for half-maximal inhibition (IC50) in test [11] is 1.37 µM.

Regarding `CCn1cc(-c2cccc(C(F)(F)F)c2)c2sc(C(=N)NC3CCS(=O)(=O)CC3)cc2c1=O` [I-BRD9], in [4], the “binding to LdBDF5” value is reported as “binds”.

Take `Cc1sc2c(c1C)C(c1ccc(Cl)cc1)=N[C@@H](CC(=O)OC(C)(C)C)c1nnc(C)n1-2` [JQ1(+)]: in test [12], the “binding to TbBDF2” value is recorded as “do not bind at all”. Further, the “binding to TbBDF3” value in test [13] was “do not bind at all”. Besides, the IC50 in test [1] (setting [21]) was 7.14 µM. The “binding to TcBDF2” value in test [2] is given as “does not interact”. In addition, the “binding to TcBDF3” value in test [3] is reported as “binds”.

With `Cc1nnc2c3ccccc3c(N[C@@H](C)[C@H](c3ccccc3)N(C)C)nn12` [L-Moses], the concentration for half-maximal inhibition (IC50) in test [14] was about 0.6 µM.

As for `COc1ccc(CCc2nc3cc(-c4c(C)noc4C)ccc3n2C[C@H](C)N2CCOCC2)cc1Cl` [SGC-CBP30], the equilibrium dissociation constant (Kd) in test [15] was 0.281 µM. Besides, the IC50 is 7.16 µM in [16], 6.16 µM in [17] and 3.2 µM in test [18] (in vitro). Besides, the selectivity index result in test [18] (calculated using a human HEK 293 cell line) is listed as “around 7”. Besides, in test [4], the “binding to LdBDF5” value is “binds”.

For the compound `COc1cc2c(cc1-c1c(C)noc1C)ncc1[nH]c(=O)n([C@H](C)c3ccccn3)c12` [iBET-151], the half-maximal inhibitory concentration (IC50) was 7.75 µM in test [5] and 6.35 µM in test [1] (setting [21]). Further, the dissociation constant Kd was 225 µM in [12] and 175 µM in test [13]. Moreover, in [2], the “binding to TcBDF2” value is “bind”. Also, in [3], the “binding to TcBDF3” value is recorded as “bind”.
